Laboratory results taken from USRE30241E, “Esters of 3-(hydroxy or hydroxymethyl)-4-hydroxyphenyl aminomethyl ketones” (Sterling Drug Inc., priority 1970, dated 1980).
Read-outs that look alike come from different tables or passages of the source.

How the values were obtained:
[1] = test system: guinea pig bronchioles constricted by carbachol; assay: Bronchodilator Test Method II, in vitro perfused guinea pig lung
Protocol: In this method bronchodilator activity in vitro was determined by testing the effect of graded doses of the test compounds on guinea pig bronchioles constricted by carbachol, using the technique reported by Sollman and von Oettingen, Proc. Soc, Exp. Biol. Med., 25,692 (1928) as modified by Tainter, Pedden, and James, J. Pharm. Exp. Ther., 51, 371 (1934) and by Luduena, von Euler, Tullar, and Lands, Arch. intern. Pharmacol., III, 392 (1957).

[2] = test system: carbachol- or histamine-induced bronchoconstriction; assay: Bronchodilator Test Method I, anesthetized dog, intraduodenal activity; type: in vivo; details: Canis lupus familiaris, read-out: Bronchodilation; for inhibition in vivo at 0.032 mg/kg: 32 mcg/kg (salt) intraduodenal; for inhibition in vivo at 0.128 mg/kg: 128 mcg/kg (salt) intraduodenal
Protocol: (§1) Male and female dogs weighing 9-18 kg. each were anesthetized with pentobarbital sodium (30 mg./kg. i.v.). Each animal, with thorax opened at the midsternum, was maintained under artificial ventilation using a constant volume pump (250 ml./stroke; 10 to 12 strokes per minute) attached to the tracheal cannula. The flow of air was controlled by a glass or plastic valve which closed and opened respectively on inflow and outflow of the air to and from the tracheal cannula. Bronchoconstriction and/or bronchodilatation were measured from changes in the basal airway pressure reflected by a transducer attached to the sidearm of the cannula relayed to a polygraph.
Control bronchoconstrictions were induced by intravenous injections of carbachol (choline chloride carbamate) in doses ranging from 4 to 6 micrograms per kilogram or histamine diphosphate in doses ranging from 35 to 45 micrograms per kilogram. In the majority of test animals, the above doses of constrictor agents produced a 100-200 percent increase in the normal airway pressure or amplitude.
Injections were repeated at 20-30 minutes.
In intraduodenal studies, in the dog prepared for bronchodilation measurements, the duodenal segment of the small intestine was made easily accessible through a small mid-line incision in the abdomen. The test solution was injected into the duodenum using a fine needle. Commencing 5 minutes after medication, the degree and duration of bronchodilation were tested by injecting a control dose of carbachol or histamine at intervals of 30-60 minutes until the recovery or near-recovery was apparent. In some dogs showing an early recovery, a reference drug was also tested in the same dog 1.5-2 hours after the first medicine.

[3] = test system: carbachol- or histamine-induced bronchoconstriction; assay: Bronchodilator Test Method I, anesthetized dog, intravenous activity; type: in vivo; details: Canis lupus familiaris, read-out: Bronchodilatation; for inhibition in vivo at 0.008 mg/kg: 8 mcg/kg i.v.; for inhibition in vivo at 0.032 mg/kg: 32 mcg/kg i.v.; for inhibition in vivo at 0.128 mg/kg: 128 mcg/kg i.v.; for inhibition in vivo at 0.0028 mg/kg: 2.8 mcg/kg i.v.; for inhibition in vivo at 0.0056 mg/kg: 5.6 mcg/kg i.v.; for inhibition in vivo at 0.03 mg/kg: 30 mcg/kg i.v.; for inhibition in vivo at 0.24 mg/kg: 240 mcg/kg i.v.; for inhibition in vivo at 0.0012 mg/kg: 1.2 mcg/kg i.v.; for inhibition in vivo at 0.006 mg/kg: 6.0 mcg/kg i.v.; for inhibition in vivo at 0.025 mg/kg: 25 mcg/kg i.v.
Protocol: Bronchodilator activity was tested in anesthetized dogs (Test Method I) and in vitro on the perfused guinea pig lung (Test Method II), using the following pharmacological test procedures
as §1
Control bronchoconstrictions were induced by intravenous injections of carbachol (choline chloride carbamate) in doses ranging from 4 to 6 micrograms per kilogram or histamine diphosphate in doses ranging from 35 to 45 micrograms per kilogram.
Solutions of the test compounds were prepared in distilled water or in saline (for infusion). […] These solutions were then tested for bronchodilator activity in three ways, viz. (1) by mixing a graded dose of test compound with the constant does of carbachol or histamine in a syringe and injecting the mixture into the femoral vein of the dog, (2) by producing the bronchoconstriction first and injecting the test compound at the time of maximum constriction, and (3) by injecting the test compound first followed by carbachol or histamine in 1-10 minutes. Injections were repeated at 20-30 minutes. Bronchodilator values were obtained by measuring the areas under the response polygraph tracings (the first 5 munite period) of carbachol or histamine controls and of the experimentals using a planimeter. Decrease in the area thus measured was expressed as a percent bronchodilatation in reference to the area of control carbachol or histamine constriction. The mean bronchodilatations (the reductions in constrictions) were plotted against the doses administered and the mean effective dose (ED50) was estimated in micrograms/kilogram from the does-response curves. Blood pressure recording was taken from the femoral artery using an arterial transducer relayed to a polygraph.

With `CC(=O)OCc1cc(C(O)CNC(C)(C)C)ccc1OC(=O)c1ccc(C)cc1` (stereo not drawn) [Example 150, 3-acetoxymethyl-4-(p-toluyloxy)-alpha-(tert-butylaminomethyl)benzyl alcohol methanesulfonate] the “ED50 (printed in brackets, footnote **ED50)” value ([1]; carbachol (Doryl) 1:5 million) was 9.3 µg (base), the “Duration, Mean” value ([1]; dose 10 mcg (base)) was 25.5 ± 16.2 min and the inhibition in vivo at 0.032 mg/kg ([2]; 5 min, 5 min) was 12%. The inhibition in vivo at 0.128 mg/kg ([2]; 5 min, 5 min) was 68%, the inhibition in vivo at 0.032 mg/kg ([2]; 0.5 h, 30 min) was 12% and the inhibition in vivo at 0.128 mg/kg ([2]; 0.5 h, 30 min) was 68%. The inhibition in vivo at 0.032 mg/kg ([2]; 1 h, 60 min) was 12%, the inhibition in vivo at 0.128 mg/kg ([2]; 1 h, 60 min) was 61% and the inhibition in vivo at 0.032 mg/kg ([2]; 2 h, 120 min) was 0%. It also gave an inhibition in vivo at 0.128 mg/kg ([2]; 2 h, 120 min) of 61%, an inhibition in vivo at 0.032 mg/kg ([2]; 3 h, 180 min) of 0% and an inhibition in vivo at 0.128 mg/kg ([2]; 3 h, 180 min) of 45%. The inhibition in vivo at 0.128 mg/kg ([2]; 4 h, 240 min) was 39%, the inhibition in vivo at 0.008 mg/kg ([3]; 5 min, 5 min) was 42% and the inhibition in vivo at 0.032 mg/kg ([3]; 5 min, 5 min) was 64%. For the same compound, the inhibition in vivo at 0.128 mg/kg ([3]; 5 min, 5 min) was 85%, the inhibition in vivo at 0.008 mg/kg ([3]; 0.5 h, 30 min) was 37% and the inhibition in vivo at 0.032 mg/kg ([3]; 0.5 h, 30 min) was 66%. For the same compound, the inhibition in vivo at 0.128 mg/kg ([3]; 0.5 h, 30 min) was 87%, the inhibition in vivo at 0.008 mg/kg ([3]; 1 h, 60 min) was 44% and the inhibition in vivo at 0.032 mg/kg ([3]; 1 h, 60 min) was 54%. The inhibition in vivo at 0.128 mg/kg ([3]; 1 h, 60 min) was 67%, the inhibition in vivo at 0.008 mg/kg ([3]; 2 h, 120 min) was 44% and the inhibition in vivo at 0.032 mg/kg ([3]; 2 h, 120 min) was 40%. It also gave an inhibition in vivo at 0.128 mg/kg ([3]; 2 h, 120 min) of 60%, an inhibition in vivo at 0.008 mg/kg ([3]; 3 h, 180 min) of 32% and an inhibition in vivo at 0.032 mg/kg ([3]; 3 h, 180 min) of 30%. It also gave an inhibition in vivo at 0.128 mg/kg ([3]; 3 h, 180 min) of 52%, an inhibition in vivo at 0.008 mg/kg ([3]; 4 h, 240 min) of 20% and an inhibition in vivo at 0.032 mg/kg ([3]; 4 h, 240 min) of 0%. It also gave an inhibition in vivo at 0.128 mg/kg ([3]; 4 h, 240 min) of 24%.
With `CC(C)(C)NCC(O)c1ccc(OC(=O)C2(C)CC2)c(OC(=O)C2(C)CC2)c1.Cl` (stereo not drawn) [Example 13, 3,4-bis(1-methylcyclopropanecarbonyloxy)-alpha-(tert-butylaminomethyl)benzyl alcohol hydrochloride] the ED50 ([1]; carbachol (Doryl) 1:5 million) was 0.45 µg (base), the “Duration, Mean” value ([1]; dose 0.79 mcg (base)) was 15 ± 1.7 min and the inhibition in vivo at 0.0028 mg/kg ([3]; 2 min, 2 min) was 52%. It also gave an inhibition in vivo at 0.0056 mg/kg ([3]; 2 min, 2 min) of 69%, an inhibition in vivo at 0.0028 mg/kg ([3]; 0.5 h, 30 min) of 48% and an inhibition in vivo at 0.0056 mg/kg ([3]; 0.5 h, 30 min) of 34%. It also gave an inhibition in vivo at 0.0028 mg/kg ([3]; 1 h, 60 min) of 0% and an inhibition in vivo at 0.0056 mg/kg ([3]; 1 h, 60 min) of 10%.
In the case of `CCC(NC1CCCC1)C(O)c1ccc(OC(=O)CC(C)C)c(OC(=O)CC(C)C)c1.Cl` (stereo not drawn) [Example 138, 3,4-bis(isovaleryloxy)-alpha-[1-(cyclopentylamino)propyl]benzylalcohol hydrochloride], the ED50 ([1]; carbachol (Doryl) 1:5 million) was 0.46 µg (base), the “Duration, Mean” value ([1]; dose 1.5 mcg (base)) was 25.4 ± 3.5 min and the inhibition in vivo at 0.03 mg/kg ([3]; 5 min, 5 min) was 38%. It also gave an inhibition in vivo at 0.24 mg/kg ([3]; 5 min, 5 min) of 49%, an inhibition in vivo at 0.03 mg/kg ([3]; 0.5 h, 30 min) of 0% and an inhibition in vivo at 0.24 mg/kg ([3]; 0.5 h, 30 min) of 62%. For the same compound, the inhibition in vivo at 0.24 mg/kg ([3]; 1 h, 60 min) was 42% and the inhibition in vivo at 0.24 mg/kg ([3]; 2 h, 120 min) was 46%.
With `CC(=O)Oc1ccc(C(O)CNC(C)(C)C)cc1OC(=O)c1ccccc1C` (stereo not drawn) [Example 147, 3-(o-toluyloxy)-4-acetoxy-alpha-(tert-butylaminomethyl)benzyl alcohol methanesulfonate] the ED50 ([1]; Doryl conc. 1:10 million) was 1.9 µg (base), the “Duration, Mean” value ([1]; dose 5 mcg (base), Doryl conc. 1:10 million) was 15.9 ± 3.3 min and the inhibition in vivo at 0.0012 mg/kg ([3]; 5 min, 5 min) was 36%. The inhibition in vivo at 0.006 mg/kg ([3]; 5 min, 5 min) was 77%, the inhibition in vivo at 0.025 mg/kg ([3]; 5 min, 5 min) was 100% and the inhibition in vivo at 0.0012 mg/kg ([3]; 0.5 h, 30 min) was 3%. For the same compound, the inhibition in vivo at 0.006 mg/kg ([3]; 0.5 h, 30 min) was 9%, the inhibition in vivo at 0.025 mg/kg ([3]; 0.5 h, 30 min) was 32% and the inhibition in vivo at 0.0012 mg/kg ([3]; 1 h, 60 min) was 0%. The inhibition in vivo at 0.006 mg/kg ([3]; 1 h, 60 min) was 0%, the inhibition in vivo at 0.025 mg/kg ([3]; 1 h, 60 min) was 12% and the inhibition in vivo at 0.025 mg/kg ([3]; 2 h, 120 min) was 4%.
